Our source for the inhibition values is US9315491B2 (DEVELOPMENT CENTER FOR BIOTECHNOLOGY, priority 2009, dated 2016).

The structures appear in SMILES notation.

Sequence of PI3K (p110α/p85α) (P42336 whole entry, species assumed): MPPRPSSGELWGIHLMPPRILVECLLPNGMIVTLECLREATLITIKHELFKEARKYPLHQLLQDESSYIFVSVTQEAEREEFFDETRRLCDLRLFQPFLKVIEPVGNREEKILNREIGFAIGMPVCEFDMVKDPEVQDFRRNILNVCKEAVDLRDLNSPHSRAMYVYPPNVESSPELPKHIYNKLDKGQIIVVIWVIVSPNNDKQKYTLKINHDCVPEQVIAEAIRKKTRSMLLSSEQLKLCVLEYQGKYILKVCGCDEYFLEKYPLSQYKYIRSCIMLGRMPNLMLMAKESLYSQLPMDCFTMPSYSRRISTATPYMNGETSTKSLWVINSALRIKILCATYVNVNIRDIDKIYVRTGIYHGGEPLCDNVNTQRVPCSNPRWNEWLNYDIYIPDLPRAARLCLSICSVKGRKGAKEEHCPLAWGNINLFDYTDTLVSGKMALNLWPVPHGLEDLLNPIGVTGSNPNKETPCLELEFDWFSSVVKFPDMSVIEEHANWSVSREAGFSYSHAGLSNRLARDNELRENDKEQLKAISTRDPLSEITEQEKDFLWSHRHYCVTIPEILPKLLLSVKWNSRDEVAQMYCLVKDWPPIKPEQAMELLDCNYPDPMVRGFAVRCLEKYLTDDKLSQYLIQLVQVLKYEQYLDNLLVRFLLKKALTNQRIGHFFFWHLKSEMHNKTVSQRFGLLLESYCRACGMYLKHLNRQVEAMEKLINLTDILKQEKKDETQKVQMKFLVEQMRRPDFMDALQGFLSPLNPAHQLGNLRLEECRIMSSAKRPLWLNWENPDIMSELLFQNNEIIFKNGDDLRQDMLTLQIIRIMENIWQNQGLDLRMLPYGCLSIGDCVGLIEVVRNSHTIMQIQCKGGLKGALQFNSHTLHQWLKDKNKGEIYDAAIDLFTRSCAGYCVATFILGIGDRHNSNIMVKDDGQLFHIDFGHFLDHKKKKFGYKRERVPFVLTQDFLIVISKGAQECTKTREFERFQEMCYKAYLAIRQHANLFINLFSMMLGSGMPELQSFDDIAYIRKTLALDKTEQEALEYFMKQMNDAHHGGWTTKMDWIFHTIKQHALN
Sequence of PI3K (p110α/p85α) (P27986 whole entry partner, species assumed): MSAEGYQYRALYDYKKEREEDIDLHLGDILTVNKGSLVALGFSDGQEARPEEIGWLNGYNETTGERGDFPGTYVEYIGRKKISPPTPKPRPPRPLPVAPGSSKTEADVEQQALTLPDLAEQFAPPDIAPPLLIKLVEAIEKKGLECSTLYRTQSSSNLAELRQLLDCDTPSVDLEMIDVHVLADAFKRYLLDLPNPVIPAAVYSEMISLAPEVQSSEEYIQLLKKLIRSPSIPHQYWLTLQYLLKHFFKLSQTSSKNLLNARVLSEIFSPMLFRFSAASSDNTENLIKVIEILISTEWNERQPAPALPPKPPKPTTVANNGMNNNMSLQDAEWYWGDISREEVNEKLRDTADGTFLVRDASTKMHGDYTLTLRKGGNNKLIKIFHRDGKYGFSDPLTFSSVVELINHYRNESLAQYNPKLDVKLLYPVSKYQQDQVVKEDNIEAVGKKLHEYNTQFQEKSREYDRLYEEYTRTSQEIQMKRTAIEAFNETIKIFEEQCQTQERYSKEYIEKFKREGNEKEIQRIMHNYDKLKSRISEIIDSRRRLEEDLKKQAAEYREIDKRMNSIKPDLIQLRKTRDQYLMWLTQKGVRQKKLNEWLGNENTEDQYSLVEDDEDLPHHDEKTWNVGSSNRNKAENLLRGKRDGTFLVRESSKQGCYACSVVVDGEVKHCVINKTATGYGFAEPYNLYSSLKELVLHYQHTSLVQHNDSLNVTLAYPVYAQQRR

The assay has as its target PI3K (p110α/p85α) (Homo sapiens (Human), UniProt P42336). As to the kind of experiment: PI3K HTRF enzyme assay, p110α/p85α. The format is biochemical. As to conditions: read-out: % inhibition @ 500 nM p110α; compound at 500 nM, 10 μM ATP. The procedure:
Recombinant PI3K (p110α/p85α) and PI3K (p110β/p85α) were from Millipore. […] Briefly, the compounds of interest dissolved in 100% DMSO were dispensed in all wells, following which the mixture of PIP2 and enzyme was added. PI3K (p110α/p85α) and PI3K (p110β/p85α) enzyme reactions were initiated in the presence of 10 μM and 100 μM ATP, respectively, and incubated for 30 min at room temperature. STOP solution prepared 2 hours prior to use was added to stop reactions, and mixed well. Detection solution prepared 2 hours prior to use was added, and incubated at room temperature for 17 hours in the dark. […] HTRF ration was calculated as follows: […]
Regarding `CSc1c(Cl)nc(-c2ccc(NC(=O)Nc3cccnc3)cc2)nc1N1CCOCC1` [MTR-0197, 1-[4-(4-Chloro-5-methylsulfanyl-6-morpholin-4-yl-pyrimidin-2-yl)-phenyl]-3-pyridin-3-yl-urea], the inhibition at 0.5 µM stood at 59.8%.
The result for `CCOC(=O)c1nc(-c2ccc(NC(=O)Nc3cccnc3)cc2)nc(N2CCOCC2)c1OCC` [MTR-0205, 5-Ethoxy-6-morpholin-4-yl-2-[4-(3-pyridin-3-yl-ureido)-phenyl]-pyrimidine-4-carboxylic acid ethyl ester] reads 42.6%.
The result for `CSc1c(Cl)nc(-c2ccc(NC(=O)Nc3ccc(N4CCOCC4)c(F)c3)cc2)nc1N1CCOCC1` [MTR-0211, 1-[4-(4-Chloro-5-methylsulfanyl-6-morpholin-4-yl-pyrimidin-2-yl)-phenyl]-3-(3-fluoro-4-morpholin-4-yl-phenyl)-urea] reads 42%; that for `CSc1c(Cl)nc(-c2ccc(NC(=O)Nc3ccc(N4CCN(C)CC4)cc3)cc2)nc1N1CCOCC1` [MTR-0215, 1-[4-(4-Chloro-5-methylsulfanyl-6-morpholin-4-yl-pyrimidin-2-yl)-phenyl]-3-[4-(4-methyl-piperazin-1-yl)-phenyl]-urea], 53.6%.
As for `CCOC(=O)c1nc(-c2ccc(NC(=O)Nc3ccc(N4CCOCC4=O)cc3)cc2)nc(N2CCOCC2)c1OCC` [MTR-0222, 5-Ethoxy-6-morpholin-4-yl-2-(4-{3-[4-(3-oxo-morpholin-4-yl)-phenyl]-ureido}-phenyl)-pyrimidine-4-carboxylic acid ethyl ester], the inhibition at 0.5 µM is 44.3%.
As to `CSc1cnc(-c2ccc(NC(=O)Nc3cccnc3)cc2)nc1N1CCOCC1` [MTR-0225, 1-[4-(5-Methylsulfanyl-4-morpholin-4-yl-pyrimidin-2-yl)-phenyl]-3-pyridin-3-yl-urea], the inhibition at 0.5 µM stood at 43.8%.
For `CSc1cnc(-c2ccc(NC(=O)Nc3ccc(N4CCOCC4)c(F)c3)cc2)nc1N1CCOCC1` [MTR-0226, 1-(3-Fluoro-4-morpholin-4-yl-phenyl)-3-[4-(5-methylsulfanyl-4-morpholin-4-yl-pyrimidin-2-yl)-phenyl]-urea] the value was 45.7%; for `CSc1cnc(-c2ccc(NC(=O)Nc3ccc(N4CCOCC4=O)cc3)cc2)nc1N1CCOCC1` [MTR-0227, 1-[4-(5-Methylsulfanyl-4-morpholin-4-yl-pyrimidin-2-yl)-phenyl]-3-[4-(3-oxo-morpholin-4-yl)-phenyl]-urea], 87%; for `COc1cnc(-c2ccc(NC(=O)Nc3cccnc3)cc2)nc1N1CCOCC1` [MTR-0228, 1-[4-(5-Methoxy-4-morpholin-4-yl-pyrimidin-2-yl)-phenyl]-3-pyridin-3-yl-urea], 74.4%.
On to `CSc1c(Cl)nc(-c2ccc(NC(=O)Nc3ccc(N4CCN(C)CC4)nc3)cc2)nc1N1CCOCC1` [MTR-0236, 1-[4-(4-Chloro-5-methylsulfanyl-6-morpholin-4-yl-pyrimidin-2-yl)-phenyl]-3-[6-(4-methyl-piperazin-1-yl)-pyridin-3-yl]-urea], for which the inhibition at 0.5 µM was 61.2%.
The result for `COc1cnc(-c2ccc(NC(=O)Nc3ccc(N4CCOCC4=O)cc3)cc2)nc1N1CCOCC1` [MTR-0241, 1-[4-(5-Methoxy-4-morpholin-4-yl-pyrimidin-2-yl)-phenyl]-3-[4-(3-oxo-morpholin-4-yl)-phenyl]-urea] reads 94.8%; that for `COc1cnc(-c2ccc(NC(=O)Nc3ccc(N4CCOCC4)c(F)c3)cc2)nc1N1CCOCC1` [MTR-0242, 1-(3-Fluoro-4-morpholin-4-yl-phenyl)-3-[4-(5-methoxy-4-morpholin-4-yl-pyrimidin-2-yl)-phenyl]-urea], 96.3%.
Regarding `CCOC(=O)c1nc(-c2ccc(NC(=O)Nc3ccc(C(N)=O)cc3)cc2)nc(N2CCOCC2)c1OCC` [MTR-0244, 2-{4-[3-(4-Carbamoyl-phenyl)-ureido]-phenyl}-5-ethoxy-6-morpholin-4-yl-pyrimidine-4-carboxylic acid ethyl ester], the inhibition at 0.5 µM was found to be 60%.
The result for `CSc1cnc(-c2ccc(NC(=O)Nc3ccc(N4CCOCC4)cc3)cc2)nc1N1CCOCC1` [MTR-0248, 1-[4-(5-Methylsulfanyl-4-morpholin-4-yl-pyrimidin-2-yl)-phenyl]-3-(4-morpholin-4-yl-phenyl)-urea] reads 45.8%; that for `CSc1c(Cl)nc(-c2ccc(NC(=O)Nc3ccc(C(N)=O)cc3)cc2)nc1N1CCOCC1` [MTR-0257, 4-{3-[4-(4-Chloro-5-methylsulfanyl-6-morpholin-4-yl-pyrimidin-2-yl)-phenyl]-ureido}-benzamide], 95.5%.
Consider `COc1cnc(-c2ccc(NC(=O)Nc3ccc(N4CCOCC4)cc3)cc2)nc1N1CCOCC1` [MTR-0261, 1-[4-(5-Methoxy-4-morpholin-4-yl-pyrimidin-2-yl)-phenyl]-3-(4-morpholin-4-yl-phenyl)-urea], for which the inhibition at 0.5 µM is 58.4%.
For `COc1cnc(-c2ccc(NC(=O)Nc3ccc(N4CCSCC4)cc3)cc2)nc1N1CCOCC1` [MTR-0262, 1-[4-(5-Methoxy-4-morpholin-4-yl-pyrimidin-2-yl)-phenyl]-3-(4-thiomorpholin-4-yl-phenyl)-urea] the value was 56.3%; for `CSc1cnc(-c2ccc(NC(=O)Nc3ccc(C(N)=O)cc3)cc2)nc1N1CCOCC1` [MTR-0267, 4-{3-[4-(5-Methylsulfanyl-4-morpholin-4-yl-pyrimidin-2-yl)-phenyl]-ureido}-benzamide], 83.7%; for `CSc1c(Cl)nc(-c2ccc(NC(=O)Nc3ccc(C(=O)N4CCN(C)CC4)cc3)cc2)nc1N1CCOCC1` [MTR-0271, 1-[4-(4-Chloro-5-methylsulfanyl-6-morpholin-4-yl-pyrimidin-2-yl)-phenyl]-3-[4-(4-methyl-piperazine-1-carbonyl)-phenyl]-urea], 94.5%.
For `CCOC(=O)c1nc(-c2ccc(NC(=O)Nc3ccc(S(N)(=O)=O)cc3)cc2)nc(N2CCOCC2)c1OCC` [MTR-0273, 5-Ethoxy-6-morpholin-4-yl-2-{4-[3-(4-sulfamoyl-phenyl)-ureido]-phenyl}-pyrimidine-4-carboxylic acid ethyl ester] the value was 50.2%; for `CCOC(=O)c1nc(-c2ccc(NC(=O)Nc3ccc(C(=O)N4CCN(C)CC4)cc3)cc2)nc(N2CCOCC2)c1OCC` [MTR-0274, 5-Ethoxy-2-(4-{3-[4-(4-methyl-piperazine-1-carbonyl)-phenyl]-ureido}-phenyl)-6-morpholin-4-yl-pyrimidine-4-carboxylic acid ethyl ester], 59%.
Consider `CCOC(=O)c1nc(-c2ccc(NC(=O)Nc3ccc(C(=O)NCCN(C)C)cc3)cc2)nc(N2CCOCC2)c1OCC` [MTR-0277, 2-(4-{3-[4-(2-Dimethylamino-ethylcarbamoyl)-phenyl]-ureido}-phenyl)-5-ethoxy-6-morpholin-4-yl-pyrimidine-4-carboxylic acid ethyl ester], for which the inhibition at 0.5 µM was determined as 61.9%.
The result for `CCOC(=O)c1nc(-c2ccc(NC(=O)Nc3ccc(C(=O)N4CCOCC4)cc3)cc2)nc(N2CCOCC2)c1OCC` [MTR-0278, 5-Ethoxy-2-(4-{3-[4-(morpholine-4-carbonyl)-phenyl]-ureido}-phenyl)-6-morpholin-4-yl-pyrimidine-4-carboxylic acid ethyl ester] reads 58.6%.
The result for `COc1cnc(-c2ccc(NC(=O)Nc3ccc(C(N)=O)cc3)cc2)nc1N1CCOCC1` [MTR-0282, 4-{3-[4-(5-Methoxy-4-morpholin-4-yl-pyrimidin-2-yl)-phenyl]-ureido}-benzamide] reads 76.8%.
Take `COc1cnc(-c2ccc(NC(=O)Nc3ccc(S(N)(=O)=O)cc3)cc2)nc1N1CCOCC1` [MTR-0283, 4-{3-[4-(5-Methoxy-4-morpholin-4-yl-pyrimidin-2-yl)-phenyl]-ureido}-benzenesulfonamide]: the inhibition at 0.5 µM amounted to 72.9%.
Regarding `CSc1cnc(-c2ccc(NC(=O)Nc3ccc(S(N)(=O)=O)cc3)cc2)nc1N1CCOCC1` [MTR-0288, 4-{3-[4-(5-Methylsulfanyl-4-morpholin-4-yl-pyrimidin-2-yl)-phenyl]-ureido}-benzenesulfonamide], the inhibition at 0.5 µM was determined as 79.2%.
For `CCOC(=O)c1nc(-c2ccc(NC(=O)Nc3ccc4oc(=O)[nH]c4c3)cc2)nc(N2CCOCC2)c1OCC` [MTR-0299, 5-Ethoxy-6-morpholin-4-yl-2-{4-[3-(2-oxo-2,3-dihydro-benzooxazol-5-yl)-ureido]-phenyl}-pyrimidine-4-carboxylic acid ethyl ester], the inhibition at 0.5 µM was found to be 44.3%.
The result for `CSc1c(Cl)nc(-c2ccc(NC(=O)Nc3ccc(C(=O)N4CCOCC4)cc3)cc2)nc1N1CCOCC1` [MTR-0308, 1-[4-(4-Chloro-5-methylsulfanyl-6-morpholin-4-yl-pyrimidin-2-yl)-phenyl]-3-[4-(morpholine-4-carbonyl)-phenyl]-urea] reads 106%; that for `COc1cnc(-c2ccc(NC(=O)Nc3cccc(C(N)=O)c3)cc2)nc1N1CCOCC1` [MTR-0313, 3-{3-[4-(5-Methoxy-4-morpholin-4-yl-pyrimidin-2-yl)-phenyl]-ureido}-benzamide], 86.9%.
For `CSc1cnc(-c2ccc(NC(=O)Nc3ccc(C(=O)O)cc3)cc2)nc1N1CCOCC1` [MTR-0316, 4-{3-[4-(5-Methylsulfanyl-4-morpholin-4-yl-pyrimidin-2-yl)-phenyl]-ureido}-benzoic acid] the value was 55.9%.
For `CCOC(=O)c1nc(-c2ccc(NC(=O)Nc3ccc(N4CCOCC4=O)cc3)cc2F)nc(N2CCOCC2)c1OCC` [MTR-0322, 5-Ethoxy-2-(2-fluoro-4-{3-[4-(3-oxo-morpholin-4-yl)-phenyl]-ureido}-phenyl)-6-morpholin-4-yl-pyrimidine-4-carboxylic acid ethyl ester], the inhibition at 0.5 µM is 44.2%.
